Measurements as given in patent publication US20140155406A1, “4-IMIDAZOPYRIDAZIN-1-YL-BENZAMIDES AND 4-IMIDAZOTRIAZIN-1-YL-BENZAMIDES BTK INHIBITORS” (priority 2011, published 2014).

Legend:
Format in all cases: biochemical
Lck enzyme = molecular target: T1, Lck enzyme (Homo sapiens, UniProt P06239); assay: Lck enzyme activity, IMAP fluorescence polarization assay; settings: 60 min pre-incubation, 6 μM ATP (Km)
T1 construct: purchased Millipore 14-442

FynT enzyme = molecular target: T2, FynT enzyme (Homo sapiens, UniProt P06241); assay: FynT enzyme activity, IMAP fluorescence polarization assay; settings: 60 min pre-incubation, 0.2 μM ATP (Km)
T2 construct: purchased Biomol SE-287
T2 sequence (P06241 1-534 isoform P06241-2): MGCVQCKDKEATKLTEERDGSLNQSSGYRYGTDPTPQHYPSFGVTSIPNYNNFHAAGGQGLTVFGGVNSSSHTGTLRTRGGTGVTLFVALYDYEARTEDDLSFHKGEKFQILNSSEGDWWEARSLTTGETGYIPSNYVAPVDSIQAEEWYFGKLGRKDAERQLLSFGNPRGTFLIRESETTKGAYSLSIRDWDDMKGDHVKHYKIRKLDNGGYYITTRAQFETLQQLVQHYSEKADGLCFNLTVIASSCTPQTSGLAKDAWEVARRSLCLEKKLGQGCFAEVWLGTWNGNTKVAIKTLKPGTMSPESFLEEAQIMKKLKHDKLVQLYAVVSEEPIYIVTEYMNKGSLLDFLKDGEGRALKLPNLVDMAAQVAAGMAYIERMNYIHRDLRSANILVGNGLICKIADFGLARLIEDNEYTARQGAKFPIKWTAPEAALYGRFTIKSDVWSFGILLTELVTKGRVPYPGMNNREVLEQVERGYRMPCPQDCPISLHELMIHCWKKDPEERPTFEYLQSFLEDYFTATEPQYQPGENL
Procedure, shortened: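 FynT (125 ng/mL final) pre-incubated 60 min at RT with compound (10 μM–0.316 nM, 1% DMSO) in pH 7.2 Tris/Mg/Mn buffer, then 100 nM fluorescein p34cdc2 peptide and 0.2 μM ATP (Km) for 2 h at RT. IMAP binding FP read at 535 nm; EC50 from curve fit versus ±ATP controls.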

Lyn enzyme = molecular target: T3, Lyn enzyme (Homo sapiens, UniProt P07948); assay: Lyn enzyme activity, IMAP fluorescence polarization assay; settings: 60 min pre-incubation, 2 μM ATP (Km)
T3 construct: purchased Millipore 14-510
T3 sequence (P07948 whole entry): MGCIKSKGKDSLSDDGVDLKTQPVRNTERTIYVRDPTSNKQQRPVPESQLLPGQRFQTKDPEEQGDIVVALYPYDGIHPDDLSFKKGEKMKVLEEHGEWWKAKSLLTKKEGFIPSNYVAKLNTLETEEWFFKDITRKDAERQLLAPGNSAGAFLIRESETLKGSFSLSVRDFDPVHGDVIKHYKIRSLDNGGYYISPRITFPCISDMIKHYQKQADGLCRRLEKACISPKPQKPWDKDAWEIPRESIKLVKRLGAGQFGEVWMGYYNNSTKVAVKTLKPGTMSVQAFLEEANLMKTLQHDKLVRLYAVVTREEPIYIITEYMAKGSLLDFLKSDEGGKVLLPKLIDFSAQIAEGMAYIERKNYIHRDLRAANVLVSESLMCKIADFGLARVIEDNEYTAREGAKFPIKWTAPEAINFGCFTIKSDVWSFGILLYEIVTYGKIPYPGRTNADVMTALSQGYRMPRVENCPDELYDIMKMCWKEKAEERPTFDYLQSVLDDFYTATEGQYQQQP

Measured: EC50

T1 sequence (P06239 whole entry): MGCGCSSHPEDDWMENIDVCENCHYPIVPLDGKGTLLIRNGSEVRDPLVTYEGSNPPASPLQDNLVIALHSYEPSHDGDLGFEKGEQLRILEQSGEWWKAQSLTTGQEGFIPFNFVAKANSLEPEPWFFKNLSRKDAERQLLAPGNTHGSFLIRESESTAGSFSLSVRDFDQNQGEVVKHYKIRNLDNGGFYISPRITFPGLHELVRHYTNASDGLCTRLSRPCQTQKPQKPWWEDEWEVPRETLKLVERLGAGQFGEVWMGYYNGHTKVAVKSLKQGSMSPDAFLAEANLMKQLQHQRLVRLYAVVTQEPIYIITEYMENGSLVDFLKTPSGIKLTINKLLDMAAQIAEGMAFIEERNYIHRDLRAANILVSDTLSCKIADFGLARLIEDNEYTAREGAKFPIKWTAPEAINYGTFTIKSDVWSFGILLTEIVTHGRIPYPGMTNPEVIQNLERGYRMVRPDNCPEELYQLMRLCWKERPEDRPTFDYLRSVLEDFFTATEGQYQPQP

CCCc1ccnc(NC(=O)c2ccc(-c3nc([C@@H]4CCCCN4C(=O)/C=C/CN4CCCC4)n4ccnc(C)c34)cc2)c1 [Example 35, (S,E)-4-(8-methyl-3-(1-(4-(pyrrolidin-1-yl)but-2-enoyl)piperidin-2-yl)imidazo[1,5-a]pyrazin-1-yl)-N-(4-propylpyridin-2-yl)benzamide]
≥ 1000 nM: all assays above

COC/C=C/C(=O)N[C@@H](C)c1nc(-c2ccc(C(=O)Nc3cc(C(F)(F)F)ccn3)cc2)c2c(C)nccn12 [Example 6, (S,E)-4-(3-(1-(4-Methoxybut-2-enamido)ethyl)-8-methylimidazo[1,5-a]pyrazin-1-yl)-N-(4-(trifluoromethyl)pyridin-2-yl)benzamide]
≥ 1000 nM: all assays above

C=CC(=O)N[C@@H](C)c1nc(-c2ccc(C(=O)Nc3cc(C(F)(F)F)ccn3)cc2)c2c(C)nccn12 [Example 8, (S)-4-(3-(1-Acrylamidoethyl)-8-methylimidazo[1,5-a]pyrazin-1-yl)-N-(4-(trifluoromethyl)pyridin-2-yl)benzamide]
≥ 1000 nM: all assays above

CCCc1ccnc(NC(=O)c2ccc(-c3nc([C@H](C)N(C)C(=O)/C=C/CN(C)C)n4ccnc(C)c34)cc2)c1 [Example 18, (S,E)-4-(3-(1-(4-(dimethylamino)-N-methylbut-2-enamido)ethyl)-8-methylimidazo[1,5-a]pyrazin-1-yl)-N-(4-propylpyridin-2-yl)benzamide]
≥ 1000 nM: all assays above

Cc1nccn2c([C@@H]3CCCCN3C(=O)/C=C/CN(C)C)nc(-c3ccc(C(=O)Nc4cc(C(F)(F)F)ccn4)cc3)c12 [Example 37, (S,E)-4-(3-(1-(4-(dimethylamino)but-2-enoyl)piperidin-2-yl)-8-methylimidazo[1,5-a]pyrazin-1-yl)-N-(4-(trifluoromethyl)pyridin-2-yl)benzamide]
≥ 1000 nM: all assays above

C=CC(=O)N1CCC[C@H]1c1nc(-c2ccc(C(=O)Nc3ccccn3)cc2)c2c(C)nccn12 [Example 19, (S)-4-(3-(1-acryloylpyrrolidin-2-yl)-8-methylimidazo[1,5-a]pyrazin-1-yl)-N-(pyridin-2-yl)benzamide]
≥ 1000 nM: all assays above

CC#CC(=O)N1CCC[C@H]1c1nc(-c2ccc(C(=O)Nc3cc(C)ccn3)cc2)c2c(C)nccn12 [Example 15, (S)-4-(3-(1-but-2-ynoylpyrrolidin-2-yl)-8-methylimidazo[1,5-a]pyrazin-1-yl)-N-(4-methylpyridin-2-yl)benzamide]
≥ 1000 nM: all assays above

CCCc1ccnc(NC(=O)c2ccc(-c3nc([C@@H]4CCCCN4C(=O)/C=C/CN(C)C)n4ccnc(C)c34)cc2)c1 [Example 3, (S,E)-4-(3-(1-(4-(Dimethylamino)but-2-enoyl)piperidin-2-yl)-8-methylimidazo[1,5-a]pyrazin-1-yl)-N-(4-propylpyridin-2-yl)benzamide]
≥ 1000 nM: all assays above

CC#CC(=O)N(C)[C@@H](C)c1nc(-c2ccc(C(=O)Nc3cc(CCC)ccn3)cc2)c2c(C)nccn12 [Example 24, (S)-4-(8-methyl-3-(1-(N-methylbut-2-ynamido)ethyl)imidazo[1,5-a]pyrazin-1-yl)-N-(4-propylpyridin-2-yl)benzamide]
≥ 1000 nM: all assays above

CC#CC(=O)N[C@@H](C)c1nc(-c2ccc(C(=O)Nc3cc(CCC)ccn3)cc2)c2c(C)nccn12 [Example 38, (S)-4-(3-(1-but-2-ynamidoethyl)-8-methylimidazo[1,5-a]pyrazin-1-yl)-N-(4-propylpyridin-2-yl)benzamide]
≥ 1000 nM: all assays above

C=CS(=O)(=O)N1CCCC[C@H]1c1nc(-c2ccc(C(=O)Nc3cc(CCC)ccn3)cc2)c2c(C)nccn12 [Example 4, (S)-4-(8-Methyl-3-(1-(vinylsulfonyl)piperidin-2-yl)imidazo[1,5-a]pyrazin-1-yl)-N-(4-propylpyridin-2-yl)benzamide]
≥ 1000 nM: all assays above
